Assay results published in ChEMBL document CHEMBL1157539, “Thousands of chemical starting points for antimalarial lead identification” (Nature, 2010).

system: Plasmodium falciparum; test: GSK_TCMDC: Inhibition of Plasmodium falciparum 3D7 in whole erythrocytes, using parasite LDH activity as an index of growth.; type: functional, organism-based; details: not given

SMILES	XC50
Cc1ccc(/C=C/C(=O)NC2CCC(CN3CCC(c4c[nH]c5ccccc45)CC3)CC2)cc1 (stereo not drawn)	0.798 µM

same assay, conditions: Plasmodium falciparum, 3D7

SMILES	XC50
O=C(Nc1ccc(-c2nc3ccccc3[nH]2)cc1)C1CCN(Cc2ccc(F)cc2)CC1	0.838 µM
Cc1nn(-c2ccc(Cl)cc2)c2[nH]c(CN3CCN(c4cccc(Cl)c4)CC3)cc(=O)c12	0.24 µM
Cc1cccc2nc(-c3cccc(-c4ccc(NC(=O)Cc5ccccn5)cc4)c3)[nH]c12	0.793 µM
CS(=O)(=O)CCNCc1nc(-c2ccc3ncnc(Nc4ccc(OCc5ccccc5)c(Cl)c4)c3c2)cs1	0.802 µM
CC(=O)c1ccc(-n2ccnc2)cc1	0.852 µM
CCN(CC)CCNc1c2ccc(Cl)cc2nc2ccc(OC)nc12	0.737 µM
Cc1ccc(/C=C/C(=O)NC2CCC(CN3CCC(c4c[nH]c5ccccc45)CC3)CC2)cc1 (stereo not drawn)	0.92 µM
Cc1cccc2nc(-c3cccc(-c4ccc(CNCc5ccc(S(C)(=O)=O)cc5)cc4)c3)[nH]c12	0.184 µM
O=C(NCCCCN1CCC(c2ccc3c(c2OCc2ccccn2)CCCC3)CC1)c1ccc(NC(=O)c2ccc(Cl)cc2)cc1	0.803 µM
COc1ccc(C(=O)N2CCC(CN3CCOC(c4ccccc4)(c4ccccc4)C3)CC2)cc1	0.171 µM
Cc1cc(-c2nc3ccc(N4CCN(C)CC4)cc3[nH]2)nn1Cc1cc(Cl)ccc1OCC(C)C	0.878 µM
O=C(Nc1ccc2ccccc2n1)c1ccccc1-c1ccccc1	0.438 µM
Cc1nc(N)nc(N)c1-c1ccc(Cl)c(Cl)c1 [METOPRINE]	0.0796 µM
CC(=O)/N=C1\N=C(NC(C)=O)NC(C)(C)N1OCCCOc1ccc(Cl)c(Cl)c1	0.00833 µM
N=C(N)Nc1nc(-c2ccc(NC(=O)Nc3cccc(-c4csc(NC(=N)N)n4)c3)cc2)cs1	1.01 µM
Cc1cccc2nc(-c3ccc(-c4cccc(C(=O)NCCN5CCCC5)c4)s3)[nH]c12	1.14 µM
CSc1nccc(-c2ccc3ccnc(N)c3c2)n1	0.925 µM
Cc1ccc(Nc2nccc(NCC(O)c3cccc(F)c3)n2)cc1 (stereo not drawn)	0.675 µM
CC(C)(CNC(=O)[C@@H]1CCCN(CCOc2ccc(Cl)cc2)C1)c1nc(-c2ccc(Cl)c(O)c2)c(-c2ccncc2)[nH]1	0.881 µM
COc1ccc(-c2cnc3ccc(NCc4ccc(S(N)(=O)=O)cc4)nn23)cn1	0.867 µM
Cc1cc(N)c2cc(NC(=O)c3cccc(C(=O)Nc4ccc5nc(C)cc(N)c5c4)c3)ccc2n1	0.256 µM
COc1cc(C)nc2ccc(NC(=O)c3cc([N+](=O)[O-])cc([N+](=O)[O-])c3)cc12	0.385 µM
C#CCN(Cc1ccc2[nH]c(N)nc(=O)c2c1)c1ccc(C(=O)N[C@@H](CCC(=O)O)C(=O)O)cc1	0.217 µM

SMILES	XC50
COc1ccc2ncc(F)c([C@@H](O)CN3CCC(NCc4cc5c(cn4)OCS5)CC3)c2c1	0.141 µM
N#Cc1ccc2c(c1)CCN(CCC1CCC(NC(=O)/C=C/c3ccc(Cl)c(Cl)c3)CC1)CC2 (stereo not drawn)	0.422 µM
CCCCCC(C)C(C)c1cc(OC(N)=O)c2c(c1)OC(C)(C)C=C2c1ccncc1 (stereo not drawn)	0.895 µM
COc1cc(-c2nc(-c3ccccc3)c(-c3ccccc3)[nH]2)cc(OC)c1O	0.774 µM
O=C(Nc1cccc2ccccc12)N1CCC(NS(=O)(=O)c2cccc(C(F)(F)F)c2)CC1	0.913 µM
Clc1ccc(-n2cnc3c(Nc4ccc(Oc5ccccc5)cc4)ncnc32)cc1Cl	0.747 µM
CC(=O)Nc1cccc(CNCc2ccc(-c3cnc(N4CCCC(c5ccccc5)C4)nc3)cc2)c1 (stereo not drawn)	1.19 µM
COc1ccc(NC(=O)[C@H](CC(C)C)Nc2cc(C)nc(NCCc3ccccc3OC)n2)cc1	0.988 µM
Cc1ccc2nc3c(cc(C(=O)NCc4ccccc4)c(=N)n3CCCn3ccnc3)c(=O)n2c1	0.993 µM
Cc1ccc(-c2noc(COc3ccccc3C(=O)NC3CCCC3)n2)cc1	0.882 µM
CCN(CC)CCCN(C(=O)Nc1ccc(C#N)cc1)c1nc(-c2ccc(F)cc2)cs1	0.65 µM
Cc1ccc(F)c(OC2CCN(c3ccc(C(=O)NC4CC4)cn3)CC2)c1	0.823 µM
CC[C@H]1CN2CC[C@@H]1C[C@H]2[C@H](O)c1cc(N2CCC(O)(c3ccc(Cl)cc3)CC2)nc2ccc(OC)cc12	0.071 µM
O=C(Nc1ccc(Cl)c(Cl)c1)N1CCC(CNCc2cccc([N+](=O)[O-])c2)CC1	0.979 µM
CCCCn1c(SC(C)C)nc2c(c1=O)C1(CCCCC1)Cc1ccccc1-2	0.666 µM
COCC(=O)N(Cc1ccccc1-c1cccc(CNCCc2ccccc2)c1)C1CCN(Cc2ccccc2)CC1	1.1 µM
COc1ccc(-c2ccc(NC(=O)c3cccc(C#N)c3)cc2)cc1CN(C)C	0.735 µM
O=C(Nc1cccc(OC2CCN(Cc3ccc(F)cc3)CC2)c1)c1ccc(C(F)(F)F)cc1	0.952 µM
COc1cc(C(=O)NC2CC(C)(C)NC(C)(C)C2)ccc1-c1cc2cc(Cl)c(Cl)cc2[nH]1	0.724 µM
Cc1nc2nc(N)nc(N)c2c(C)c1Cc1ccc(C(N)=O)cc1	0.53 µM
Cc1cccc2nc(-c3ccc(-c4ccc(CN5CCN(CCO)CC5)cc4)cc3)[nH]c12	0.599 µM
COc1ccc(Nc2nccc(N3CCC(NC(=O)C(C)c4ccc(Cl)cc4)C3)n2)cc1 (stereo not drawn)	1.01 µM
CC[C@H]1CN2CC[C@H]1C[C@H]2[C@H](OC(=O)c1ccccc1)c1cc(C#N)nc2ccc(OC)cc12	0.915 µM

SMILES	XC50
CN1CCC(NCc2ccc(-c3ccc(S(=O)(=O)NC4CCC4)s3)cc2)CC1	0.846 µM
O=C(Nc1cccc(OC2CCN(Cc3ccccc3)CC2)c1)c1ccc(Cl)c(Cl)c1	0.716 µM
CSC1=NC(=Nc2c(C)cccc2C)C2(CCC(C(C)(C)C)CC2)N1c1ccc(O)cc1 (stereo not drawn)	0.25 µM
CC[C@H]1CN2CC[C@H]1C[C@H]2[C@H](O)c1cc(-c2ccccc2F)nc2ccc(OC)cc12	0.0789 µM
COc1cc(C(=O)NCCCN2CCN(c3cc(Cl)ccc3OC)CC2)ccc1-c1nc2cc(Cl)c(Cl)cc2[nH]1	0.731 µM
CC[C@H]1CN2CC[C@H]1C[C@H]2[C@H](O)c1cc(-c2ccc(C)cc2)nc2ccc(OC)cc12	0.109 µM
COc1ccc2ncc(C#N)c(CCN3CCC(NCc4cnc5c(c4)OCCO5)CC3)c2n1	0.595 µM
Cc1ccc(Oc2ccc(NC(=O)CNc3ccccc3N3CCCC3=O)cc2)cc1	0.366 µM
O=C1C(c2ccccc2)=C(Nc2cccc(OC(F)(F)C(F)F)c2)c2ccccc21	0.18 µM
CN(c1ccc(NC(=O)c2cccc(F)c2)cc1)C1CCCN(Cc2cccc(O)c2)C1 (stereo not drawn)	1.3 µM
O=C(NC1CCN(Cc2ccc(O)cc2)CC1)c1ccc(Cl)c(Cl)c1	1.18 µM
CCN(CC)CCCC(C)Nc1c(-c2ccc(C)cc2)cnc2ccccc12 (stereo not drawn)	0.2 µM
Cc1ccccc1C1CCN(C2CCC(NC(=O)/C=C/c3cc(F)cc(F)c3)CC2)CC1 (stereo not drawn)	0.833 µM
O=C(Cc1cccc2ccccc12)N1CCc2cc3nccc(N4CCN5CCC[C@H]5C4)c3cc21	0.777 µM
O=C(/C=C/c1ccc(Cl)c(Cl)c1)NCCCCCN1CCC(CCNC(=O)/C=C/c2cc(C(F)(F)F)ccc2F)CC1	0.765 µM
O=C(Nc1ccc(-c2csc(-c3nc4ccccc4[nH]3)c2)cc1)Nc1ccc(Cl)c(Cl)c1	0.402 µM
O=C(/C=C/c1ccc(Cl)c(Cl)c1)NCCCCCN1CCC(CCNC(=O)Cc2ccc(Cl)cc2)CC1	1.16 µM
CCOc1cc(C)ccc1N(C1CCN(CCCCNC(=O)c2ccc(-c3ccc(C(F)(F)F)cc3)cc2)CC1)S(=O)(=O)c1ccccc1	1.02 µM
CC(Oc1c(C2CCN(CCCCNC(=O)c3ccc(-c4ccc(Cl)cc4)cc3)CC2)ccc2c1CCCC2)C(N)=O (stereo not drawn)	0.948 µM
COc1ccc(NC(=O)C2c3ccccc3C(=O)N(C3CCCC3)C2c2cccs2)cc1OC (stereo not drawn)	1.09 µM
CC(C)Cn1c(N)cc(=O)n(C)c1=O	0.978 µM
